Laboratory results published in US9624228B2, “Inhibitors of ERK and methods of use” (KURA ONCOLOGY, INC., priority 2013, dated 2017).

Biological target: ERK2 enzyme (Homo sapiens (Human), UniProt P28482)
Assay: Inhibition assay of ERK (Z'-LYTE kinase assay, Ser/Thr 3 peptide substrate)
Format: biochemical
Settings: In vitro ERK2 enzyme, 100 μM ATP
Protocol: The inhibition of ERK activity by the compounds disclosed herein was determined using the Z′-LYTE kinase assay kit (Life Technologies) with a Ser/Thr 3 peptide substrate (Life Technologies) according to manufacturers' instructions. […] The IC50 values for the compounds were determined with 3-fold serial dilutions in duplicate. […] The final DMSO concentration in the assay was 1%. Final reaction volume was 20 μL/well in 384-well plates. Kinase reactions were conducted or 1 hour followed by the assay development reaction (1 hour) in a 20 ul/well in a 384 well plate format.

Chain of ERK2 enzyme (P28482 whole entry): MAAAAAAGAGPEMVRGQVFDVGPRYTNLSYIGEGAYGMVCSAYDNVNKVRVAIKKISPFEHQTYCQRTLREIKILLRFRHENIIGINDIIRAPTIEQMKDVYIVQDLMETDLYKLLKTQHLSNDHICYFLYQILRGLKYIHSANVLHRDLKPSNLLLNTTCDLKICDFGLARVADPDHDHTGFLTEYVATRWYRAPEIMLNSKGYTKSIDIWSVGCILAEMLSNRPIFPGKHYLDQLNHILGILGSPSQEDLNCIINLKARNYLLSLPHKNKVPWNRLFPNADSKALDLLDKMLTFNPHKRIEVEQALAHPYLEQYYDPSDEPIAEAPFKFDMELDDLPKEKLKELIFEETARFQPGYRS

| Compound | IC50 |
| --- | --- |
| O=C1Nc2cc3[nH]nc(N4CCOCC4)c3cc2CN1Cc1cccc(Cl)c1 [Compound 78] | < 50 nM |
| COc1ncc(-c2n[nH]c3cc4c(cc23)CN(CC2CCNCC2)C(=O)N4)cn1 [Compound 81] | 250 to 1000 nM |
| COc1ncc(-c2n[nH]c3cc4c(cc23)CN(CC2CCN(CC3CC3)CC2)C(=O)N4)cn1 [Compound 82] | 250 to 1000 nM |
| Cc1cc(-c2n[nH]c3cc4[nH]c(=O)c([C@H](C)c5ccccc5)cc4cc23)ccn1 [Compound 84] | < 50 nM |
| COc1ccc(-c2n[nH]c3cc4c(cc23)CN(Cc2ccc(F)cc2F)C(=O)N4)cn1 [Compound 87] | < 50 nM |
| COc1ncc(-c2n[nH]c3cc4c(cc23)CN(Cc2cc(F)cc(F)c2)C(=O)N4)cn1 [Compound 88] | < 50 nM |
| CS(=O)(=O)c1ccc(-c2n[nH]c3cc4c(cc23)CN(Cc2cccc(Cl)c2)C(=O)N4)cc1 [Compound 89] | < 50 nM |
| O=C1Nc2cc3[nH]nc(-c4ccccn4)c3cc2CN1Cc1cccc(Cl)c1 [Compound 91] | 50 to 250 nM |
| COc1ccc(-c2n[nH]c3cc4c(cc23)CN(Cc2cc(F)cc(F)c2)C(=O)N4)cn1 [Compound 92] | < 50 nM |
| N#Cc1ccc(-c2n[nH]c3cc4c(cc23)CN(Cc2cccc(Cl)c2)C(=O)N4)cc1 [Compound 94] | 50 to 250 nM |
| COc1ncc(-c2n[nH]c3cc4c(cc23)CN([C@H](C)c2ccc(Cl)cc2)C(=O)N4)cn1 [Compound 95] | < 50 nM |
| COc1ncc(-c2n[nH]c3cc4c(cc23)CN(Cc2cccc(Cl)c2)CC(=O)N4)cn1 [Compound 98] | > 1000 nM |
| COc1ncc(-c2n[nH]c3cc4c(cc23)CN(Cc2ccc(F)cc2F)C(=O)N4)cn1 [Compound 99] | < 50 nM |
| COc1ncc(-c2n[nH]c3cc4c(cc23)CN([C@H](C)c2cccc(C#N)c2)C(=O)N4)cn1 [Compound 100] | < 50 nM |
| COc1ncc(-c2n[nH]c3cc4c(cc23)CN([C@@H]2CCCN(Cc3ccccc3F)C2)C(=O)N4)cn1 [Compound 101] | < 50 nM |
| COc1ncc(-c2n[nH]c3cc4c(cc23)CN([C@@H]2CCCN(Cc3c(F)cccc3F)C2)C(=O)N4)cn1 [Compound 102] | < 50 nM |
| COc1ncc(-c2n[nH]c3cc4c(cc23)CN([C@@H]2CCCN(Cc3c(F)cccc3OC)C2)C(=O)N4)cn1 [Compound 103] | < 50 nM |
| COc1ncc(-c2n[nH]c3cc4c(cc23)CN([C@@H]2CCCN(Cc3ccccc3)C2)C(=O)N4)cn1 [Compound 104] | < 50 nM |
| CCC(=O)NCCCN1Cc2cc3c(-c4cnc(OC)nc4)n[nH]c3cc2NC1=O [Compound 105] | < 50 nM |

| Compound | IC50 |
| --- | --- |
| COc1ncc(-c2n[nH]c3cc4c(cc23)CN(CCc2cccc(Cl)c2)CC(=O)N4)cn1 [Compound 107] | 250 to 1000 nM |
| Cc1cccc(-c2n[nH]c3cc4c(cc23)CN(Cc2cccc(Cl)c2)C(=O)N4)n1 [Compound 108] | 50 to 250 nM |
| COc1ncc(-c2n[nH]c3cc4c(cc23)CN(C)CC(=O)N4)cn1 [Compound 109] | > 1000 nM |
| C[C@H](c1cccc(Cl)c1)N1Cc2cc3c(-c4ccnnc4)n[nH]c3cc2NC1=O [Compound 111] | < 50 nM |
| C[C@H](c1ccc(Cl)cc1)N1Cc2cc3c(-c4ccnnc4)n[nH]c3cc2NC1=O [Compound 115] | < 50 nM |
| COc1cccc(F)c1CN1CCC(N2Cc3cc4c(-c5ccnnc5)n[nH]c4cc3NC2=O)CC1 [Compound 116] | 50 to 250 nM |
| O=C1Nc2cc3[nH]nc(-c4ccnnc4)c3cc2CN1[C@H](CO)c1cccc(Cl)c1 [Compound 117] | < 50 nM |
| COc1ncc(-c2n[nH]c3cc4c(cc23)CN([C@H](CO)c2cccc(Cl)c2)C(=O)N4)cn1 [Compound 118] | < 50 nM |
| COc1ncc(-c2n[nH]c3cc4c(cc23)CN(Cc2cccc(C(F)(F)F)c2)C(=O)N4)cn1 [Compound 119] | < 50 nM |
| O=C1Nc2cc3[nH]nc(-c4ccnnc4)c3cc2CN1[C@@H]1CCCN(Cc2ccccc2)C1 [Compound 120] | < 50 nM |
| O=C1Nc2cc3[nH]nc(-c4ccnnc4)c3cc2CN1[C@@H]1CCCN(Cc2ccccc2F)C1 [Compound 121] | < 50 nM |
| O=C1Nc2cc3[nH]nc(-c4ccnnc4)c3cc2CN1[C@@H]1CCCN(Cc2c(F)cccc2F)C1 [Compound 122] | < 50 nM |
| O=C1Nc2cc3[nH]nc(-c4cncnc4)c3cc2CN1Cc1cccc(Cl)c1 [Compound 123] | < 50 nM |
| O=C1Nc2cc3[nH]nc(-c4ccnnc4)c3cc2CN1Cc1cccc(C(F)(F)F)c1 [Compound 124] | < 50 nM |
| COc1ncc(-c2n[nH]c3cc4c(cc23)CN(Cc2cccc(C#N)c2)C(=O)N4)cn1 [Compound 125] | < 50 nM |
| COc1cccc(F)c1CN1CCC[C@@H](N2Cc3cc4c(-c5ccnnc5)n[nH]c4cc3NC2=O)C1 [Compound 126] | < 50 nM |
| COc1ncc(-c2n[nH]c3cc4[nH]c(=O)c(C(C)c5cccc(Cl)c5)cc4cc23)cn1 (centres unmarked) [Compound 129] | 50 to 250 nM |
| COc1ncc(-c2n[nH]c3cc4c(cc23)CCN(Cc2ccc(F)cc2)C(=O)N4)cn1 [Compound 130] | 50 to 250 nM |

The next lines start with the values.

| IC50 | Compound |
| --- | --- |
| < 50 nM | Cc1cc(-c2n[nH]c3cc4c(cc23)CN(Cc2cccc(Cl)c2)C(=O)N4)cc(C)n1 [Compound 77] |
| < 50 nM | COc1ccc(-c2n[nH]c3cc4c(cc23)CN(CCc2ccc(F)cc2)C(=O)N4)cn1 [Compound 79] |
| < 50 nM | COc1ncc(-c2n[nH]c3cc4c(cc23)CN(CCc2ccc(F)cc2)C(=O)N4)cn1 [Compound 80] |
| < 50 nM | Cc1cc(-c2n[nH]c3cc4c(cc23)CN(CCN)C(=O)N4)ccn1 [Compound 83] |
| < 50 nM | COc1ccc(-c2n[nH]c3cc4c(cc23)CN(CCc2cccc(Cl)c2)C(=O)N4)cn1 [Compound 85] |
| < 50 nM | COc1ncc(-c2n[nH]c3cc4c(cc23)CN(CCc2cccc(Cl)c2)C(=O)N4)cn1 [Compound 86] |
| < 50 nM | Cc1ncc(-c2n[nH]c3cc4c(cc23)CN(Cc2cccc(Cl)c2)C(=O)N4)cn1 [Compound 90] |
| < 50 nM | Nc1ncc(-c2n[nH]c3cc4c(cc23)CN(Cc2cccc(Cl)c2)C(=O)N4)cn1 [Compound 93] |
| 50 to 250 nM | COc1ncc(-c2n[nH]c3cc4c(cc23)CN(C)C(=O)N4)cn1 [Compound 96] |
| < 50 nM | O=C1Nc2cc3[nH]nc(-c4ccnnc4)c3cc2CN1Cc1ccc(F)cc1 [Compound 97] |
| 50 to 250 nM | CCC(=O)NCCN1Cc2cc3c(-c4cnc(OC)nc4)n[nH]c3cc2NC1=O [Compound 106] |
| < 50 nM | O=C1Nc2cc3[nH]nc(-c4ccnnc4)c3cc2CN1CCc1ccc(F)cc1 [Compound 110] |
| < 50 nM | COc1ncc(-c2n[nH]c3cc4c(cc23)CN(CCCN)C(=O)N4)cn1 [Compound 112] |
| 50 to 250 nM | COc1ncc(-c2n[nH]c3cc4c(cc23)CN(CCN)C(=O)N4)cn1 [Compound 113] |
| < 50 nM | O=C1Nc2cc3[nH]nc(-c4ccnnc4)c3cc2CN1Cc1ccc(F)cc1F [Compound 114] |
| < 50 nM | O=C1Nc2cc3[nH]nc(-c4ccnnc4)c3cc2CN1Cc1cc(F)cc(F)c1 [Compound 127] |
| < 50 nM | N#Cc1cccc(CN2Cc3cc4c(-c5ccnnc5)n[nH]c4cc3NC2=O)c1 [Compound 128] |
| 50 to 250 nM | Cc1ccc(CN2CCC[C@@H](N3Cc4cc5c(-c6ccnc(C)c6)n[nH]c5cc4NC3=O)C2)cn1 [Compound 131] |
| < 50 nM | Cc1cc(-c2n[nH]c3cc4c(cc23)CN([C@@H]2CCCN(Cc3ccc(F)cn3)C2)C(=O)N4)ccn1 [Compound 132] |
